Format in all cases: binding
Assay [1] concerns the target T1, glycerol-3-phosphate dehydrogenase (GPD2) (Homo sapiens, UniProt P43304).
T1 sequence (P43304 43-727): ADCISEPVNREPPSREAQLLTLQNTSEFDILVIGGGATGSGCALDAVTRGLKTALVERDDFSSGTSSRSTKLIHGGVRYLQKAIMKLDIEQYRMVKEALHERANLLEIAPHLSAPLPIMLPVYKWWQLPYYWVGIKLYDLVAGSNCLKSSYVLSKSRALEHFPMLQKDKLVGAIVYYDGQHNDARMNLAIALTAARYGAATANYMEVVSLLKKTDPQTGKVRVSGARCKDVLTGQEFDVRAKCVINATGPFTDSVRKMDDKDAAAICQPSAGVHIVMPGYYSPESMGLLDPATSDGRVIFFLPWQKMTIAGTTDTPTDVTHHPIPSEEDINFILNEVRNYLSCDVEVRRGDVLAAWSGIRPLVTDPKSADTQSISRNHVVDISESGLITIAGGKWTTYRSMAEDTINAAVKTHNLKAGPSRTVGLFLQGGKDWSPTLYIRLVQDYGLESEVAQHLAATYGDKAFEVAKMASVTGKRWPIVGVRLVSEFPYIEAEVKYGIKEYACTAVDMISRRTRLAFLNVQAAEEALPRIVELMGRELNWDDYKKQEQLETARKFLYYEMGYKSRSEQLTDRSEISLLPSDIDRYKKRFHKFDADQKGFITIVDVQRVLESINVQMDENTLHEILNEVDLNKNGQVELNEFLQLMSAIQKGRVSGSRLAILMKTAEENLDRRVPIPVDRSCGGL
In words: microscale thermophoresis with labeled purchased protein (Abcam ab153790). In general terms: In MST a laser heats a spot of the sample, and binding alters the fluorescence response.

In assay [2] the target is T2, phosphoglycerate kinase 2 (PGK2) (Homo sapiens, UniProt P07205).
T2 sequence (P07205 2-417): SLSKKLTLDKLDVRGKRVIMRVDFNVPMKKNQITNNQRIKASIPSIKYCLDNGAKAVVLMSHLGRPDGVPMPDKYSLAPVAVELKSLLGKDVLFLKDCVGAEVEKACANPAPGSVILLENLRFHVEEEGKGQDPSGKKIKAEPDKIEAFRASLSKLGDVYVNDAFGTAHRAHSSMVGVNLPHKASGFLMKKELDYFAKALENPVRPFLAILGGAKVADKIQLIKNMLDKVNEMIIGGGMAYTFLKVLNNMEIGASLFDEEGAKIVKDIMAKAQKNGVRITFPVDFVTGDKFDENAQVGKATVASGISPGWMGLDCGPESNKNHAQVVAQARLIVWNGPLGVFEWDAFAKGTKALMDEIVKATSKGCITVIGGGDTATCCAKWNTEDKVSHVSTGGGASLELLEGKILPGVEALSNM
In words: microscale thermophoresis with labeled purchased protein (Abcam ab123166).

The target of assay [3] is glucose-6-phosphate isomerase (GPI) (Homo sapiens, UniProt P06744). As to the kind of experiment: microscale thermophoresis with labeled purchased protein (Abcam ab208311).

On to `O=c1ccc2cc(O)c(O)cc2o1` [Esculetin], for which the Kd (usually the equilibrium constant for the complex coming apart) turned out to be 666 ± 196 nM in assay [1], 161 ± 63.3 nM in assay [2] and 127 ± 22.4 nM in assay [3].

Values taken from article PMC7118906, “Esculetin Inhibits Cancer Cell Glycolysis by Binding Tumor PGK2, GPD2, and GPI” (Frontiers in Pharmacology, 2020).
